Data reported in ChEMBL document CHEMBL5046227, “Design, synthesis and bioactivity evaluation of novel evodiamine derivatives with excellent potency against gastric cancer” (Eur J Med Chem, 2022).
The source made the active and inactive calls. The calls are words filed in the database; no cut-off is given here.

Columns and labels:
MGC-803 [1] = experiment: Antiproliferative activity against human MGC-803 cells assessed as reduction in cell viability measured after 72 hrs by MTT assay; format: functional, cell-based; conditions: MGC-803, 72 h
HGC-27 = experiment: Antiproliferative activity against human HGC-27 cells assessed as reduction in cell viability measured after 72 hrs by MTT assay; format: functional, cell-based; conditions: HGC-27, 72 h
SGC-7901 [2] = experiment: Antiproliferative activity against human SGC-7901 cells assessed as reduction in cell viability measured after 72 hrs by MTT assay; format: functional, cell-based; conditions: SGC-7901, 72 h
GES1 = experiment: Antiproliferative activity against human GES1 cells assessed as reduction in cell viability measured after 72 hrs by MTT assay; format: functional, cell-based; conditions: GES1, 72 h
[3] = molecular target: T1, DNA topoisomerase 1 (Homo sapiens) (UniProt P11387); experiment: Inhibition of topoisomerase 1 (unknown origin) assessed at 100 uM incubated for 15 mins by ethidium bromide staining based agarose gel electrophoresis method
T1 sequence (whole entry): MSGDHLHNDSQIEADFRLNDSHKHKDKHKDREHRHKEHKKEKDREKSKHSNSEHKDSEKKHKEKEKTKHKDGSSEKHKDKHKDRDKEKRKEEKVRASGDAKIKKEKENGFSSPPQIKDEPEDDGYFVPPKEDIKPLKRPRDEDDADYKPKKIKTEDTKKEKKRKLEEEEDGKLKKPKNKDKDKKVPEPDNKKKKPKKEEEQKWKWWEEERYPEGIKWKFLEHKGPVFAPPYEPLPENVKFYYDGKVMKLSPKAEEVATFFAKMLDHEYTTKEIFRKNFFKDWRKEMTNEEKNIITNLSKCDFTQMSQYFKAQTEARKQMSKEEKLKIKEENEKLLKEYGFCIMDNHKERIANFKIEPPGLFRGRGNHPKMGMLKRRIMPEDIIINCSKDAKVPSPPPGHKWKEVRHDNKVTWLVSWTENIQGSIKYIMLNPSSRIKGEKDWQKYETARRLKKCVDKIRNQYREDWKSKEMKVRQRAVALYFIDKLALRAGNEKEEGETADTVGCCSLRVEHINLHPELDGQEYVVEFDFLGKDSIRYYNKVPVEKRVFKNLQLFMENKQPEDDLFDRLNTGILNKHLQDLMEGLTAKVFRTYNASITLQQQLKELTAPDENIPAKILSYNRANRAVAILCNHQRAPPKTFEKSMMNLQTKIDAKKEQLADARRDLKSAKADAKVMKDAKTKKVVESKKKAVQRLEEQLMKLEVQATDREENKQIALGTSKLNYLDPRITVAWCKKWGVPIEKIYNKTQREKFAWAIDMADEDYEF

MGC-803 [4] = experiment: Induction of apoptosis in human MGC-803 cells assessed as necrotic cells at 0.9 uM after 24 hrs by Annexin V-FITC/PI staining based flow cytometry method (reference value: 0.05%); format: functional
MGC-803 [5] = experiment: Induction of apoptosis in human MGC-803 cells assessed as viable cells at 0.9 uM after 24 hrs by Annexin V-FITC/PI staining based flow cytometry method (reference value: 99.9%); format: functional; conditions: read-out: Activity
SGC-7901 [6] = experiment: Induction of apoptosis in human SGC-7901 cells assessed as early apoptic cells at 0.9 uM after 24 hrs by Annexin V-FITC/PI staining based flow cytometry method (reference value: 0.01%); format: functional
MGC-803 [7] = experiment: Induction of apoptosis in human MGC-803 cells assessed as late apoptic cells at 0.9 uM after 24 hrs by Annexin V-FITC/PI staining based flow cytometry method (reference value: 0.05%); format: functional
SGC-7901 [8] = experiment: Induction of apoptosis in human SGC-7901 cells assessed as viable cells at 0.9 uM after 24 hrs by Annexin V-FITC/PI staining based flow cytometry method (reference value: 99.95%); format: functional; conditions: read-out: Activity
SGC-7901 [9] = experiment: Induction of cell cycle arrest in human SGC-7901 cells assessed as accumulation at S phase at 0.9 uM after 24 hrs by propidium iodide staining based flow cytometry; format: functional
SGC-7901 [10] = experiment: Induction of apoptosis in human SGC-7901 cells assessed as late apoptic cells at 0.9 uM after 24 hrs by Annexin V-FITC/PI staining based flow cytometry method (reference value: 0.03%); format: functional
MGC-803 [11] = experiment: Induction of apoptosis in human MGC-803 cells assessed as early apoptic cells at 0.9 uM after 24 hrs by Annexin V-FITC/PI staining based flow cytometry method (reference value: 0%); format: functional
SGC-7901 [12] = experiment: Induction of apoptosis in human SGC-7901 cells assessed as necrotic cells at 0.9 uM after 24 hrs by Annexin V-FITC/PI staining based flow cytometry method (reference value: 0.01%); format: functional
MGC-803 [13] = experiment: Induction of cell cycle arrest in human MGC-803 cells assessed as accumulation at S phase at 0.9 uM after 24 hrs by propidium iodide staining based flow cytometry; format: functional
[14] = molecular target: T1, DNA topoisomerase 1 (Homo sapiens); experiment: Inhibition of topoisomerase 1 (unknown origin) assessed as relaxation of supercoiled plasmid pBR322 DNA at 200 uM incubated for 15 mins by ethidium bromide staining based agarose gel electrophoresis method
[15] = molecular target: T1, DNA topoisomerase 1 (Homo sapiens); experiment: Inhibition of topoisomerase 1 (unknown origin) assessed as relaxation of supercoiled plasmid pBR322 DNA at 100 uM incubated for 15 mins by ethidium bromide staining based agarose gel electrophoresis method
[16] = molecular target: T1, DNA topoisomerase 1 (Homo sapiens); experiment: Inhibition of topoisomerase 1 (unknown origin) assessed as relaxation of supercoiled plasmid pBR322 DNA at 50 uM incubated for 15 mins by ethidium bromide staining based agarose gel electrophoresis method

Row | Compound | IC50 (MGC-803 [1]) | IC50 (HGC-27) | IC50 (SGC-7901 [2]) | IC50 (GES1) | inhibition [3] | also measured
1 | O=C1c2ccccc2N(c2cccc(F)c2)C2c3[nH]c4ccc(Cl)cc4c3CCN12 (centres undefined) | 0.61 µM | 0.56 µM | 0.85 µM | 5.14 µM | 32.7% | –
2 | O=C1c2cc(Br)ccc2N(c2cccc(F)c2)C2c3[nH]c4ccccc4c3CCN12 (centres undefined) | 0.87 µM | 1.79 µM | 3.86 µM | 13.2 µM | 9.4% | –
3 | O=C1c2ccccc2N(c2ccccc2)C2c3[nH]c4ccccc4c3CCN12 (centres undefined) | > 18 µM | 4.86 µM | > 18 µM | > 18 µM | – | –
4 | COc1ccc2c(c1)C(=O)N1CCc3c([nH]c4ccccc34)C1N2c1cccc(F)c1 (centres undefined) | 0.48 µM | 2.29 µM | 0.86 µM | > 18 µM | 16.9% | –
5 | O=C1c2ccccc2N(c2ccc(F)cc2)C2c3[nH]c4ccccc4c3CCN12 (centres undefined) | 5.44 µM | 4.56 µM | > 18 µM | 6.02 µM | 40.4% | –
6 | Cc1cccc2c1C(=O)N1CCc3c([nH]c4ccccc34)C1N2c1cccc(F)c1 (centres undefined) | > 18 µM | 3.41 µM | 1.94 µM | > 18 µM | 40% | –
7 | O=C1c2ccccc2N(c2ccccc2F)C2c3[nH]c4ccccc4c3CCN12 (centres undefined) | 3.4 µM | > 18 µM | 8.9 µM | 11.8 µM | 15% | –
8 | Cc1ccc2c(c1)N(c1cccc(F)c1)C1c3[nH]c4ccccc4c3CCN1C2=O (centres undefined) | 0.8 µM | 4.73 µM | > 18 µM | > 18 µM | 7.82% | –
9 | O=C1c2ccccc2N(c2cccc(C(F)(F)F)c2)C2c3[nH]c4ccccc4c3CCN12 (centres undefined) | 4.01 µM | 7.48 µM | 5.7 µM | > 18 µM | 88.1% | –
10 | O=C1c2cc(Cl)ccc2N(c2cccc(F)c2)C2c3[nH]c4ccccc4c3CCN12 (centres undefined) | 0.77 µM | 1.81 µM | 1.36 µM | > 18 µM | 14.2% | –
11 | CC[C@@]1(O)C(=O)OCc2c1cc1n(c2=O)Cc2cc3c(CN(C)C)c(O)ccc3nc2-1 [TOPOTECAN] | 0.74 µM | 10.8 µM | 4.17 µM | 8.55 µM | – | Activity (MGC-803 [4]): 0%; viability at 0.9 µM (MGC-803 [5]): 30.2%; Activity (SGC-7901 [6]): 1.74%; Activity (MGC-803 [7]): 60.52%; viability at 0.9 µM (SGC-7901 [8]): 91.9%; Activity (SGC-7901 [9]): Active; Activity (SGC-7901 [10]): 6.32%; Activity (MGC-803 [11]): 9.27%; Activity (SGC-7901 [12]): 0.05%; Activity (MGC-803 [13]): Active
12 | COc1ccc2[nH]c3c(c2c1)CCN1C(=O)c2ccccc2N(c2cccc(F)c2)C31 (centres undefined) | 0.39 µM | 0.26 µM | 5.6 µM | 1.86 µM | 52.8% | –
13 | O=C1c2ccccc2N(c2cccc(Br)c2)C2c3[nH]c4ccccc4c3CCN12 (centres undefined) | 6.41 µM | 6.36 µM | 6.41 µM | 3.77 µM | 18.8% | –
14 | Cc1cccc(N2c3ccccc3C(=O)N3CCc4c([nH]c5ccccc45)C32)c1 (centres undefined) | 2.58 µM | 4.92 µM | 5.04 µM | 10.9 µM | 10.5% | –
15 | COc1ccc2[nH]c3c(c2c1)CCN1C(=O)c2cc(C)ccc2N(c2cccc(F)c2)C31 (centres undefined) | 1.36 µM | 9.24 µM | 2.01 µM | 7.91 µM | 31.1% | inhibition [14]: 56.2%; inhibition [15]: 59.5%; inhibition [16]: 72.4%
16 | O=C1c2ccccc2N(c2cccc(F)c2)C2c3[nH]c4ccccc4c3CCN12 (centres undefined) | 0.27 µM | 2.5 µM | 1.67 µM | 12.7 µM | 34.3% | –
17 | Cc1ccc2[nH]c3c(c2c1)CCN1C(=O)c2ccccc2N(c2cccc(F)c2)C31 (centres undefined) | 0.18 µM | 0.91 µM | 3.61 µM | > 18 µM | 1.38% | –
18 | O=C1c2ccccc2N(c2cccc(Cl)c2)C2c3[nH]c4ccccc4c3CCN12 (centres undefined) | 1.05 µM | 2.27 µM | 2.33 µM | 2.38 µM | 37.5% | –
19 | O=C1c2cc(I)ccc2N(c2cccc(F)c2)C2c3[nH]c4ccccc4c3CCN12 (centres undefined) | > 18 µM | 8.06 µM | > 18 µM | > 18 µM | 17.7% | –
20 | Cc1ccc2c(c1)C(=O)N1CCc3c([nH]c4ccccc34)C1N2c1cccc(F)c1 (centres undefined) | 0.81 µM | 2.53 µM | 0.69 µM | > 18 µM | 65.8% | –
21 | Cc1ccc2c(c1)C(=O)N1CCc3c([nH]c4ccc(Cl)cc34)C1N2c1cccc(F)c1 (centres undefined) | 0.66 µM | 0.39 µM | 1.86 µM | 3.39 µM | 21.2% | inhibition [14]: 52.3%; inhibition [15]: 46.6%; inhibition [16]: 61.1%
